Like-named read-outs stand apart in the source and are kept apart here.
Experiments:
[1] = system: HepG2-A16-CD81EGFP cells; assay: cells; conditions: Homo sapiens, HepG2, read-out: % inhibition
[2] = system: HepG2-A16-CD81EGFP cells; assay: cells; conditions: Homo sapiens, HepG2, read-out: % inhibition; remark: listed apart in the source
[3] = system: Plasmodium berghei (Pb-Luc) exoerythrocytic-stage parasites; assay: microbe, parasite or virus in culture
[4] = read-out: Inhibition% @ 50 uM rep1
[5] = read-out: Inhibition% @ 50 uM rep2

Compound | inhibition at 50 µM [1] [%] | inhibition at 50 µM [2] [%] | inhibition at 50 µM [3, 4] [%] | inhibition at 50 µM [3, 5] [%]
CSc1ccccc1C(=O)Nc1nc(-c2ccccn2)cs1 [MMV001246] | 82.2 | 86.4 | 101 | 104
CCCCc1ccc(NS(=O)(=O)c2cc3c4c(c2)CCN4C(=O)CC3)cc1 [MMV001255] | 67.8 | 77.1 | 98 | 92
O=C(Nc1ccc(Br)cc1)Nc1cccc(Cl)c1 [MMV001318] | 66.2 | 65.5 | 103 | 102
CCc1c(C)c(=N)c2ccccc2n1C [MMV006278] | 71 | 77.8 | 100 | 101
CN(C)c1ccc(C=Cc2nc(=O)c3ccccc3o2)cc1 [MMV006309] | 96.7 | 98.3 | 104 | 105
CCOC(=O)c1ccc2nc(-c3ccccc3)cc(O)c2c1 [MMV006457] | 78.2 | 82.5 | 102 | 104
COc1ccc(-c2nc3cc(Cc4ccc5[nH]c(-c6ccc(OC)cc6)nc5c4)ccc3[nH]2)cc1 [MMV007384] | 96 | 99.2 | 104 | 105
CCCCCCOC(=O)C1=C(C)NC(=O)NC1c1ccccc1F (stereo not drawn) [MMV007686] | 19.1 | 4.22 | 69 | 63
O=c1nc(C=Cc2ccc(Cl)cc2)oc2ccccc12 [MMV007977] | 78.9 | 85.9 | 104 | 106
CCOC(=O)c1cnc2c(C)cc(C)cc2c1Nc1ccc(OC)c(OC)c1 [MMV008294] | 1.7 | -1.86 | 0.759 | 0
CCCc1c(CC)c(=N)c2ccccc2n1C [MMV008416] | 83.1 | 84 | 101 | 104
CCN(CC)S(=O)(=O)c1ccc(-c2csc(Nc3ccc(C)c(C)c3)n2)cc1 [MMV009108] | 72.2 | 80.9 | 97 | 96
Cc1cc(Nc2ccc3ccccc3c2)n2ncnc2n1 [MMV011099] | 88.4 | 86.3 | 101 | 102
Cc1cc(Nc2ccc(Cl)cc2)n2nc(C(F)(F)F)nc2n1 [MMV011256] | 37.6 | 37.8 | 102 | 104
COc1ccc(C(=O)Nc2nonc2-c2ccc(OC)c(OC)c2)cc1Cl [MMV011567] | -1.34 | 2.69 | 58 | 80
Oc1ccccc1CN1CCN(C(c2ccccc2)c2ccccc2)CC1 [MMV011795] | 77.8 | 51.4 | 100 | 102
COc1cccc(-c2nn(C)c3sc(C(=O)NCCN4CCN(c5ccccc5F)CC4)cc23)c1 [MMV019064] | 53.8 | 82.3 | 103 | 104
Cc1cccc(Nc2nc(N)c3ccccc3n2)c1 [MMV019110] | 91.6 | 92 | 99 | 98
CCN(Cc1ccccc1)C1CCN(Cc2cc(Br)ccc2O)CC1 [MMV019127] | 82.2 | 86 | 102 | 104
CCOc1cccc(C(=O)Nc2ccc(-c3nc4ccccc4[nH]3)cc2)c1 [MMV019202] | 76.2 | 88.4 | 101 | 100

Compound | inhibition at 50 µM [1] [%] | inhibition at 50 µM [2] [%] | inhibition at 50 µM [3, 4] [%] | inhibition at 50 µM [3, 5] [%]
COc1ccc(-n2ccnc2SCC(=O)Nc2cc(C)ccc2C)c(OC)c1 [MMV019258] | 63.1 | 80.6 | 102 | 102
CCC1(C)CC(CCNCc2ccccc2O)(c2ccc(C)cc2)CCO1 (stereo not drawn) [MMV019406] | 96.7 | 98.3 | 102 | 102
O=C(Nc1ccc(N2CCCCC2)c(Cl)c1)c1ccc(Br)o1 [MMV019700] | 97.5 | 99 | 104 | 106
Fc1ccc2[nH]c3c(NCCCN4CCOCC4)ncnc3c2c1 [MMV019871] | 58.8 | 74.2 | 103 | 103
O=C(NC1CCN(Cc2ccccc2)CC1)c1cc(-c2ccncc2)nc2ccc(Cl)cc12 [MMV020275] | 89.1 | 90.6 | 52 | 39
CC1CN(C(=O)c2sc3ccccc3c2Cl)CC(C)O1 (stereo not drawn) [MMV020492] | 25 | 23.2 | 44 | 44
CNCCCNc1ccnc2cc(Cl)ccc12 [MMV020500] | 101 | 101 | 104 | 105
CC1CCN(Cc2ccc(NC(=O)c3cc4ccc5cccnc5c4[nH]3)cc2)CC1 [MMV020549] | 95.4 | 96.7 | 104 | 106
COc1ccc(-c2nonc2NC(=O)c2cccc(Cl)c2)cc1OC [MMV020660] | 92 | 93.3 | 104 | 106
Oc1ccccc1CNCC12CC3CC(CC(C3)C1)C2 [MMV020788] | 94 | 95.9 | 102 | 103
COc1ccc(Br)cc1C1Nc2ccc3ccccc3c2C2=C1C(=O)CC(c1ccccc1)C2 (stereo not drawn) [MMV020885] | 69.1 | 75.1 | 102 | 102
COc1cc(SC)ccc1C(=O)N1CCCC(C)C1 (stereo not drawn) [MMV056726] | 65.4 | 67.3 | 86 | 93
CCOc1ccc(C2N(C)c3ccccc3N2C)cc1 [MMV075490] | 88 | 89.5 | 103 | 102
CCOc1cc(Br)c(C(C)NC(=O)c2cccc(OC)c2)cc1OCC (stereo not drawn) [MMV665796] | 88.4 | 96.9 | 103 | 104
FC(F)(F)c1cccc(Nc2nc(-c3ccccc3)nc3ncccc23)c1 [MMV665798] | 95.3 | 98.3 | 103 | 104
CCOc1cc(Cl)c(C(C)NC(=O)c2cccc(OC)c2)cc1OCC (stereo not drawn) [MMV665803] | 86.5 | 97.7 | 104 | 106
CCOc1ccc(-c2nonc2NC(=O)c2cccc(C)c2)cc1OCC [MMV665805] | 0.576 | 6.54 | 44 | 72
Cc1c(C)n(CC(O)CNC2CCCCC2C)c2ccccc12 (stereo not drawn) [MMV665806] | 31.3 | 47.6 | 90 | 92
COc1ccc2c(=O)cc(C(Cl)(Cl)Cl)oc2c1 [MMV665820] | 96.4 | 98.1 | 103 | 102
